From PubChem BioAssay AID1159562 (GlaxoSmithKline (GSK), 2015)
pIC50: −log10 of the molar value. The source made the active and inactive calls. The rule behind the calls is not given here.

What follows are compounds tested on Trypanosoma brucei growth inhibition, luminescence (assay: antitrypanosomal activity against T. brucei – luminescence (AID 1159562);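 note: parasites grew with compound for 24 h before the luminescence read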).
In the case of `Cc1c([N+](=O)[O-])c(C(=O)Nc2sc3c(c2C#N)CCC(C)C3)nn1C` (stereo not given), the IC50 was > 40 µM (inactive).
With `O=C1OCc2ccc(Nc3nccc(-c4cnn5ncccc45)n3)cc21` the pIC50 was 7.70.
In the case of `N#Cc1cccc(CN2CCC(c3nc(-c4ccc(C(F)(F)F)nc4)no3)CC2)c1`, the IC50 was > 40 µM (inactive).
`CS(=O)(=O)c1cccc(-c2cnc(N)c3c(-c4ccc(CO)cc4)csc23)c1` gave a pIC50 of 5.30.
With `OC[C@@H](Nc1nccc(-c2c(-c3ccc(F)cc3)ncn2C2CCNCC2)n1)c1ccccc1` the pIC50 was 6.20.
With `CCNc1cc(-c2ccccn2)nc(Nc2ccc(OC)cc2)n1` the pIC50 was 5.00.
For `COc1cc(C2SCC(=O)Nc3c2c(C)nn3-c2nc3ccccc3s2)cc(OC)c1O` (stereo not given), the IC50 was > 40 µM (inactive).
`CC(=O)Nc1ccc(Nc2nccc(-c3cnn4ncccc34)n2)cc1C(F)(F)F` gave a pIC50 of 7.30.
Compound `CCCc1nc2nc(N)nc(N)c2cc1CC` has a pIC50 of 4.60.
Work on `NCc1ccc2c(Cl)cc(Cl)c(O)c2n1` yielded a pIC50 of 6.70.
